This note sets out measurements from paper PMC9841576, “Characterisation of C101248: A novel selective THIK-1 channel inhibitor for the modulation of microglial NLRP3-inflammasome” (Neuropharmacology, 2023).

Common to all, as to format: cell-based
The test system of assay [1] is NLRP3-dependent release of IL-1β. Nature of the assay: LPS/ATP-induced IL-1β release from differentiated THP1 cells overexpressing human THIK-1. The conditions noted are these: 1 μM, THIK-1 overexpressing THP1 cells. How it is done:
(§1) THP1 cells, obtained from ATCC, are monocytes isolated from peripheral blood of a leukaemia patient. THP1 cells were grown in RPMI 1640 supplemented with 10% fetal bovine serum (FBS, Hyclone), 1% PenStrep (Invitrogen), and 1% GlutaMax (Invitrogen), and 0.05 mM of 2-mercaptoethanol. To overexpress human THIK-1, THP1 cells were differentiated with 100 ng/ml PMA for 24 h prior to transfection with THIK-1 mRNA synthesized as described in the supplementary material. Cell suspensions (2.5 × 10^6 cells in […]) in the presence of 200 μg/ml mRNA were electroporated with the MaxCyte (STX instrument) in an OC-25 MaxCyte Electroporation cassette using manufacturer settings for THP1 cells. Cell suspensions were transferred to a 6-well plate and allowed to recover for 20 min at 37 °C. Cells were seeded into 384-well plates (10,000 cells/well) for thallium flux assays or 96-well plates (50,000 cells/well) for inflammasome assays the following day. Overexpressing and mock-transfected cells were primed with 100 ng/ml of LPS for 3.5 h prior to addition of compounds 30 min before stimulation with 5 mM ATP. Supernatants were collected 2 h after addition of ATP and stored at −20 °C until the detection of IL-1β.
IL-1β from culture supernatants was measured with DuoSet ELISA kit (R&D Systems) following the manufacturer instructions.

For assay [2], the target named is T1, THIK-1 (Homo sapiens, UniProt Q9HB14).
T1 construct: expressed in transfected cells
T1 sequence (Q9HB14 1-408): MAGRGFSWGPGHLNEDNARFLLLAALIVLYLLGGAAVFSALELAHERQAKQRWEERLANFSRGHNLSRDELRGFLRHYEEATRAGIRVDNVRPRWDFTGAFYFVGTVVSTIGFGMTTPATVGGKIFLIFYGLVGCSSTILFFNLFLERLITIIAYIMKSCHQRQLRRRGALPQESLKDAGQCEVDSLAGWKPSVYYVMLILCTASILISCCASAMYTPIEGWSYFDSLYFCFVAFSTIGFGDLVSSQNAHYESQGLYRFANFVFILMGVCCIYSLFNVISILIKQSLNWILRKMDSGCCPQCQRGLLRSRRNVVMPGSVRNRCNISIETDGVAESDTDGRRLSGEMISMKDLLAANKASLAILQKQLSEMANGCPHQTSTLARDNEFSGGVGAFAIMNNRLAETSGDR
Put plainly: FLIPR thallium influx assay, HEK-hTHIK-1 cells. The conditions noted are these: HEK-hTHIK-1, normalised to TPA controls; read-out: IC50, inhibition of THIK-1 constitutive activity (thallium influx). The method, then: HEK-293 cells were transfected with human THIK-1, TREK-1, TWIK-2, or mouse THIK-1 cDNA cloned into pcDNA3.1, using either Fugene HD transfection reagent (Promega) or electroporation (MaxCyte STX instrument). Cells stably expressing the relevant genes were selected based on resistance to 500 μg/ml geneticin (Gibco). For human THIK-1 and TWIK-2 expressing cells, monoclonal lines were isolated by limited dilution cloning; mouse THIK-1 and human TREK-1 expressing cells were maintained as polyclonal pools. The HEK-293 pools and monoclones stably expressing the relevant genes were maintained in DMEM (Life Technologies), supplemented with 10% FCIII (HyClone, Fetal clone III) and 500 μg/ml geneticin. A CHO-Kv2.1 cell line was purchased from Millipore (accession NM_004975) and maintained in F12 (Life Technologies), supplemented with 10% FCSIII (Thermo Scientific) and 500 μg/ml geneticin (Life Technologies). For thallium flux assays, banks of frozen cell aliquots were prepared the day prior to assay, cells were thawed into media and seeded into PDL coated 384-well plates (Corning) at 25,000 (human/mouse THIK-1, TREK-1) or 30,000 (TWIK-2) cells/well (25 μl/well). CHO-Kv2.1 cells were seeded into non-PDL coated plates (Corning) at 5000 cells/well. Plated cells were incubated overnight at 37 °C, 5% CO2 in a humidified atmosphere. For Q-Patch assays, cells were cultured for 7 days prior to assay, dissociated, and diluted to 1–2.5 million/ml in EX-CELL ACF serum free media containing HEPES (25 mM; Life Technologies), penicillin/streptomycin (100 U/ml, 100 μg/ml; Life Technologies) and a trypsin inhibitor (0.04 mg/ml).
A fluorescence-based thallium influx assay (Molecular Devices potassium assay kit) was used to monitor channel activity. In brief, component A was reconstituted in 17 ml of chloride-free assay buffer (130 mM sodium D-gluconate, 5 mM potassium D-gluconate, 2 mM calcium D-gluconate, 1 mM magnesium D-gluconate, 5 mM NaHCO3, 20 mM HEPES; pH adjusted to 7.4 with NaOH and filtered (0.45 μm filter)) and component C reconstituted in 30 μl of DMSO. Components A and C were combined, and probenecid was added (Life Technologies; final assay concentration (FAC) 4.75 mM for HEK cell lines and 2.47 mM for CHO-Kv2.1) to provide the final dye solution. Media was removed from the cell plates and replaced with dye (20 μl/well) and the plates were incubated at room temperature in the dark for 60 min. On the day of the assay, a diluted compound plate (3x FAC in 1.5% DMSO) was created. Control wells contained either DMSO vehicle (1.5%, 3x FAC) or tetrapentylammonium chloride (TPA; Sigma, 258962; 1.5 mM in 1.5% DMSO, 3x FAC). A 3x thallium stimulation plate was also prepared, to provide a FAC of either 1 mM (human THIK-1) or 3 mM (mouse THIK-1, TREK-1, TWIK-2) thallium sulphate (in assay buffer). For Kv2.1, the FAC of thallium sulphate was 2.6 mM and this was prepared in assay buffer containing potassium sulphate (Sigma P9458; FAC 23.3 mM). Following 60 min of dye loading, 10 μl from the 3x FAC compound plate was added into the cell plate, which was then incubated for 15 min at room temperature in the dark. Using a fluorescent imaging plate reader (FLIPR) tetra plate reader, 15 μl thallium stimulus solution was added to the cell plate and the fluorescence signal recorded every second for 1 min (excitation: 470–495 nm, emission: 515–575 nm).

Assay [3] addresses T1, THIK-1. Put plainly: Thallium influx in human THIK-1 overexpressing differentiated THP1 cells. The conditions noted are these: THIK-1 mRNA-transfected differentiated THP1 cells; read-out: IC50, block of thallium influx. How it is done:
as §1, with “Overexpressing and mock-transfected cells were primed with 100 ng/ml of LPS for 3.5 h prior to addition of compounds 30 min before stimulation with 5 mM ATP. Supernatants were collected 2 h after addition of ATP and stored at −20 °C until the detection of IL-1β.” left out
A fluorescence-based thallium influx assay (Molecular Devices potassium assay kit) was used to monitor channel activity. […] Using a fluorescent imaging plate reader (FLIPR) tetra plate reader, 15 μl thallium stimulus solution was added to the cell plate and the fluorescence signal recorded every second for 1 min (excitation: 470–495 nm, emission: 515–575 nm).

`CC(C)(O)c1coc(S(=O)(=O)NC(=O)Nc2c3c(cc4c2CCC4)CCC3)c1` [MCC950, reference compound]: the “effect on ATP-stimulated IL-1β release” value in assay [1] is on record as “completely blocked”.

On to `CCCCC[N+](CCCCC)(CCCCC)CCCCC` [TPA, tetrapentylammonium chloride, reference compound], for which the IC50 on THIK-1 [2] is 4.7 µM; on THIK-1 [3], 6.8 µM.

As usually defined, the IC50 is the concentration that inhibits the measured activity by half.
